Patent US20060269482A1 (priority 2005, published 2006)

System: retinoblastoma protein (Rb) phosphorylation in HCT116 cells
Test: Rb phosphorylation in HCT116 cells by Western blot and ELISA
Format: cell-based, human
Conditions: HCT116, 20 hours, 0.1, 0.2 and 0.6 μM
Protocol: Cells were washed 3 times with cold PBS on ice and scraped from the flasks. All cells were collected in 15 ml tubes. Cells were pelleted by centrifugation and lysis buffer was added (1:1 PBS: 2× Tris-Glycine SDS Sample Buffer (Invitrogen, Carlsbad, Calif.) containing 5% 2-β mercaptoethanol). The volume of lysis buffer used was 5 ul per 1×10^6 cells. Samples were sonicated for 30 seconds on ice. Following sonication, samples were clarified by centrifugation at 16,000×g for 10 minutes at 4° C. and protein concentrations were determined using Non-Interfering Protein Assay Kit (Geno Technology Incorporated, Maplewood, Mo.). Proteins were denatured by boiling for 5 minutes and centrifuged as described above. […] For Western blotting, total Rb was detected using antibody from Pharmingen (BD Bioscience, San Diego, Calif.) at a dilution of 1:2000. The phosphorylation status of Rb at serine 780, serine 795 and serine 807/811 was detected with phosphospecific antibodies at dilutions of 1:1000 (Cell Signaling Technology, Beverly, Mass.). […]
HCT116 cells were treated for 20 hours at the IC50 (0.1 μM), IC90 (0.2 μM) and 3×IC90 (0.6 μM) concentrations for cell growth inhibition, as determined in a 5-day proliferation assay. Lysates were analyzed by Western blotting for Rb phosphorylation at serine 795 and serine 780 (FIG. 1). […]

## COc1ccc(F)c(F)c1C(=O)c1cnc(NC2CCN(S(C)(=O)=O)CC2)nc1N [COMPOUND A, [4-amino-2-(1-methanesulfonylpiperidin-4-ylamino)pyrimidin-5-yl]-(2,3-difluoro-6-methoxyphenyl)methanone]
  Rb phosphorylation at serine 795, serine 780 (Western blot) and threonine 821 (ELISA): inhibition of phosphorylation at all three CDK phosphorylation sites in a concentration-dependent fashion
